Results on 8 compounds are retold here after ChEMBL document CHEMBL1629541, “Synthesis and structure-activity relationships of aza- and diazabiphenyl analogues of the antitubercular drug (6S)-2-nitro-6-{[4-(trifluoromethoxy)benzyl]oxy}-6,7-dihydro-5H-imidazo[2,1-b][1,3]oxazine (PA-824)” (J Med Chem, 2010).

The term AUC(0-inf) denotes the area under the concentration-time curve extrapolated to infinity. Low values mean less exposure, high ones more exposure. As usually defined, the Cmax is the highest concentration seen after dosing. A word on the half-life: it is the time in which the quantity being followed falls by half. The low end stands for fast loss, the high end for slow loss. As a reminder, the solubility (thermodynamic) is the concentration in solution at equilibrium with solid. Usually solubility stands for how much of the substance goes into solution per volume. The term amount remaining denotes the share of the starting amount still present when the sample was taken. A high value points to greater stability. As a reminder, the Kp is the ratio of the level in a tissue or fluid to that in plasma or blood. As usually defined, the Tmax is the time at which the peak concentration occurs. The term AUC(0-t) denotes the area under the concentration-time curve up to a stated or last time point. Read a high AUC(0-t) as high exposure. What is called bioavailability is dose-corrected exposure relative to a reference, in per cent.

Data set [1] can be described thus: AUC (0-infinity) in CD1 mouse plasma at 40 mg/kg, po administered as single dose. It counts as ADME, organism-based. Details: time infinity, dose 40 mg/kg, route oral.
Data set [2] is described as follows: Cmax in CD1 mouse plasma at 40 mg/kg, po administered as single dose. It counts as ADME, organism-based. Also noted: dose 40 mg/kg, route oral.
A short description of data set [3]: Half life in CD1 mouse plasma at 40 mg/kg, po administered as single dose. It counts as ADME, organism-based. Also noted: dose 40 mg/kg, route oral.
Data set [4] in a line: AUC (0-infinity) in CD1 mouse lung at 40 mg/kg, po administered as single dose. It counts as ADME, organism-based. Also noted: time infinity, dose 40 mg/kg, route oral.
Data set [5] is described as follows: Cmax in CD1 mouse lung at 40 mg/kg, po administered as single dose. It counts as ADME, organism-based. Also noted: dose 40 mg/kg, route oral.
Data set [6] is described as follows: Half life in CD1 mouse lung at 40 mg/kg, po administered as single dose. It counts as ADME, organism-based. Details: dose 40 mg/kg, route oral.
Data set [7] in a line: Thermodynamic solubility in aqueous buffer at pH 1 at 20 degC by HPLC. It counts as physicochemical. As to conditions: for solubility thermodynamic: aqueous buffer.
Data set [8] in a line: Thermodynamic solubility in aqueous buffer at pH 7.4 at 20 degC by HPLC. It counts as physicochemical.
The nature of data set [9]: physchem. As to conditions: water, pH 1.
Description: Solubility of the compound in water at pH 1.0 by HPLC
Data set [10] in a line: in vitro. As to conditions: human, liver microsomes. (Liver microsomes are a subcellular fraction often used to study metabolism.)
Description: Metabolic stability in human liver microsomes assessed as compound remaining after 1 hr
Data set [11] can be described thus: in vitro. As to conditions: CD1, mouse, liver microsomes.
Description: Metabolic stability in CD1 mouse liver microsomes assessed as compound remaining after 1 hr
Data set [12] relates to Mycobacterium tuberculosis. In words: microbe, parasite or virus in culture. As to conditions: H37Rv.
Data set [13] concerns Mycobacterium tuberculosis. Put plainly: microbe, parasite or virus in culture. As to conditions: H37Rv. The source holds these as a separate data set.
Description: Antitubercular activity against Mycobacterium tuberculosis H37Rv by LORA method
Data set [14] in a line: Ratio of AUC (0-infinity) in lung to AUC (0-infinity) in plasma of CD1 mouse at 40 mg/kg, po administered as single dose. It counts as ADME, organism-based. Details: dose 40 mg/kg, route oral.
A short description of data set [15]: physchem. As to conditions: water, pH 7.
Description: Solubility of the compound in water at pH 7.0 by HPLC
A short description of data set [16]: Cmax in Sprague-Dawley rat at 5 mg/kg, iv administered as single dose. It counts as ADME, organism-based. As to conditions: in vivo. Also noted: dose 5 mg/kg, route intravenous.
Data set [17] is described as follows: Tmax in Sprague-Dawley rat at 5 mg/kg, iv administered as single dose. It counts as ADME, organism-based. Details: dose 5 mg/kg, route intravenous. As to conditions: in vivo.
Data set [18] in a line: Half life in Sprague-Dawley rat at 5 mg/kg, iv administered as single dose. It counts as ADME, organism-based. Also noted: dose 5 mg/kg, route intravenous. As to conditions: in vivo.
Data set [19] is described as follows: AUClast in Sprague-Dawley rat at 5 mg/kg, iv administered as single dose. Details: time 0 - last, dose 5 mg/kg, route intravenous. It counts as ADME, organism-based. As to conditions: plasma.
Data set [20] in a line: Cmax in Sprague-Dawley rat at 20 mg/kg, po administered as single dose. Also noted: dose 20 mg/kg, route oral. As to conditions: in vivo. It counts as ADME, organism-based.
The nature of data set [21]: Tmax in Sprague-Dawley rat at 20 mg/kg, po administered as single dose. It counts as ADME, organism-based. Details: dose 20 mg/kg, route oral. As to conditions: in vivo.
The nature of data set [22]: AUClast in Sprague-Dawley rat at 20 mg/kg, po administered as single dose. Details: time 0 - last, dose 20 mg/kg, route oral. It counts as ADME, organism-based. As to conditions: plasma.
Data set [23] in a line: Oral bioavailability in Sprague-Dawley rat at 20 mg/kg, po administered as single dose. It counts as ADME, organism-based. As to conditions: in vivo.

In brackets after ≈: the same amount, converted by molar mass.

Take `O=[N+]([O-])c1cn2c(n1)OC[C@@H](OCc1cnc(-c3ccc(OC(F)(F)F)cc3)nc1)C2`: the values for the AUC(0-inf) in data set [1] and in [4] were 43 µg·h/mL and 131 µg·h/mL, respectively. Also, the Cmax in data set [2] worked out at 1200 ng/mL; in data set [5], 4000 ng/mL. The half-life is 23 h in [3] and 18 h in [6]. For the same compound, the thermodynamic solubility in [7] was 1.5 µg/mL (≈ 3.43 µM); in data set [8] it was 1.2 µg/mL (≈ 2.74 µM). In addition, the solubility in “physchem [9]” stood at 3 µg/mL (≈ 6.86 µM). Besides, the fraction remaining at 1 h in “in vitro [10]” turned out to be 96%; in the data set “in vitro [11]”, 87%. Further, the values for the MIC in [12] and in [13] were 0.027 µM (≈ 0.0118 µg/mL) and 1.8 µM (≈ 0.787 µg/mL), respectively.

Take `O=[N+]([O-])c1cn2c(n1)OC[C@@H](OCc1ccc(-c3ccc(C(F)(F)F)cn3)cc1)C2`: the AUC(0-inf) in data set [1] is 20 µg·h/mL; in data set [4], 67 µg·h/mL. The maximum concentration (Cmax) in data set [2] was 1100 ng/mL; in [5], 34000 ng/mL. Further, the half-life is 8.8 h in data set [3] and 10 h in data set [6]. Moreover, in data set [14], the Kp amounted to 3.4. In addition, the values for the solubility (thermodynamic) in [7] and in data set [8] were 0.84 µg/mL (≈ 2 µM) and 0.42 µg/mL (≈ 0.999 µM), respectively. The solubility in “physchem [15]” amounted to 0.2 µg/mL (≈ 0.476 µM); in the data set “physchem [9]”, 5.1 µg/mL (≈ 12.1 µM). For the same compound, the figures for the fraction remaining at 1 h in “in vitro [10]” and in the data set “in vitro [11]” were 93% and 90%, respectively. Besides, the values for the MIC in data set [12] and in data set [13] were 0.06 µM (≈ 0.0252 µg/mL) and 1 µM (≈ 0.42 µg/mL), respectively.

Turning to `O=[N+]([O-])c1cn2c(n1)OC[C@@H](OCc1ccc(-c3ccc(C(F)(F)F)nc3)cc1)C2`, the AUC(0-inf) came out at 217 µg·h/mL in [1] and 414 µg·h/mL in data set [4]. Also, the Cmax in data set [2] stood at 14000 ng/mL; in data set [5], 373000 ng/mL. For the same compound, the half-life in data set [6] was 9.1 h. The Kp in data set [14] came to 1.9. For the same compound, the results for the solubility (thermodynamic) in data set [7] and in data set [8] were 0.38 µg/mL (≈ 0.904 µM) and 0.17 µg/mL (≈ 0.404 µM), respectively. For the same compound, the solubility in the data set “physchem [15]” came to 1 µg/mL (≈ 2.38 µM); in “physchem [9]”, 11 µg/mL (≈ 26.2 µM). The amount remaining at 1 h in “in vitro [10]” is 86%. Also, the MIC in [12] was found to be 0.03 µM (≈ 0.0126 µg/mL); in data set [13], 2.1 µM (≈ 0.883 µg/mL).

As to `O=[N+]([O-])c1cn2c(n1)OC[C@@H](OCc1ccc(-c3ccc(F)nc3)cc1)C2`, the results for the solubility in “physchem [15]” and in the data set “physchem [9]” were 8 µg/mL (≈ 21.6 µM) and 10 µg/mL (≈ 27 µM), respectively. In addition, the results for the share remaining at 1 h in “in vitro [10]” and in “in vitro [11]” were 88% and 79%, respectively. In addition, the MIC came out at 0.095 µM (≈ 0.0352 µg/mL) in data set [12] and 2.1 µM (≈ 0.778 µg/mL) in data set [13].

Regarding `O=[N+]([O-])c1cn2c(n1)OC[C@@H](OCc1ccc(-c3ccnc(F)c3)cc1)C2`, the values for the solubility in the data set “physchem [15]” and in the data set “physchem [9]” were 14 µg/mL (≈ 37.8 µM) and 15 µg/mL (≈ 40.5 µM), respectively. In addition, the results for the amount remaining at 1 h in the data set “in vitro [10]” and in “in vitro [11]” were 93% and 86%, respectively. Besides, the MIC stood at 0.23 µM (≈ 0.0852 µg/mL) in data set [12] and 1.4 µM (≈ 0.518 µg/mL) in data set [13].

For `O=[N+]([O-])c1cn2c(n1)OC[C@@H](OCc1ccc(-c3ccc(OC(F)(F)F)cc3)cc1)C2`, the AUC(0-inf) in data set [1] was 198 µg·h/mL; in [4], 218 µg·h/mL. Further, the Cmax in [2] came out at 7400 ng/mL; in [5], 9000 ng/mL. In data set [6], this compound gave a half-life of 13 h. The thermodynamic solubility in data set [7] and in [8] was less than 0.1 µg/mL each time. The compound further registered a solubility in “physchem [9]” of 1.1 µg/mL (≈ 2.53 µM).

As to `O=[N+]([O-])c1cn2c(n1)OC[C@@H](OCc1ccc(OC(F)(F)F)cc1)C2` [PRETOMANID], in [7], the thermodynamic solubility turned out to be 11 µg/mL (≈ 30.6 µM).

As for `O=[N+]([O-])c1cn2c(n1)OC[C@@H](OCc1ccc(-c3ccc(OC(F)(F)F)cc3)nc1)C2` [TBA-354], the figures for the AUC(0-inf) in [1] and in data set [4] were 296 µg·h/mL and 81 µg·h/mL, respectively. Besides, the Cmax was 12000 ng/mL in data set [2], 18000 ng/mL in data set [5], 3900 ng/mL in data set [16] and 8100 ng/mL in [20]. In addition, the half-life is 24 h in [3], 2.2 h in [6] and greater than 6 h in data set [18]. For the same compound, the figures for the Tmax in data set [17] and in data set [21] were 4.98 min and 5 h, respectively. Moreover, the AUC(0-t) in data set [19] came to 12.1 µg·h/mL; in [22] it was 30.1 µg·h/mL. The same compound displayed a bioavailability in data set [23] of 62%. In addition, the solubility in data set [7] (buffer) came out at 45 µg/mL (≈ 103 µM). The solubility (thermodynamic) in [8] was less than 0.1 µg/mL. Further, the fraction remaining at 1 h in “in vitro [10]” amounted to 83%; in “in vitro [11]”, 87%. Besides, the MIC in [12] is 0.05 µM (≈ 0.0218 µg/mL); in data set [13], 0.54 µM (≈ 0.236 µg/mL).
